Measurements reported in patent US12214036B2, “Combination therapy comprising AXL/MER and PD-1/PD-L1 inhibitors” (Incyte Corporation, priority 2020, dated 2025).
“Also recorded” adds a separate entry of the source.

Tested on: human PBMCs co-cultured with H1299 cells
Assay: H1299 / PBMC co-culture cytokine assay
Format: cell-based
Conditions: 4 days, stimulated PBMCs + H1299, FIG. 6
Description: The ability of Compound 1 to cooperate with checkpoint blockade to further boost antitumor responses was evaluated. H1299 lung cancer cells were co-cultured with stimulated human PBMCs treated with Compound 1, anti-human programmed cell death (PD)-1 antibody retifanlimab or the combination, and production of proinflammatory cytokines was assessed in two different experiments (FIG. 6).
H1299 cells were co-cultured with human PBMCs, each at 4 or 16×10^4 cells/mL in RPMI containing 10% FBS, 100 U/mL of penicillin-streptomycin (ThermoFisher Scientific; #15140-122) and 1× beta-mercaptoethanol (ThermoFisher Scientific; #21985-023). Compound 1 or retifanlimab were added as single agents or in combination to the cells. Anti-CD3 (BD Biosciences #555336), anti-CD28 (BD Biosciences #555725) or SEA (Toxin Technology, Sarasota, Fla.; #AT101red) were added at a final concentration of 1 μg/mL, 0.5 μg/mL or 100 ng/mL, respectively, to stimulate cell growth. Cultures were incubated at 37° C. in 5% CO2 incubator for 4 days. The supernatant was collected for cytokine analysis using a multiplex assay system (custom human ProcartaPlex Luminex kit, ThermoFisher Scientific; #PPX-15-MXRWE6P).

Q: “retifanlimab: humanized, IgG4 monoclonal antibody that binds to human PD-1; heavy chain SEQ ID NO:2, light chain SEQ ID NO:3” was tested. Which proinflammatory cytokine production did it give?
A: induced these cytokines in a subset of donors; also recorded: induction of proinflammatory cytokines
